Results: the supplement of paper PMC10307832

Assays:
Assay in all cases: relative viability (nuclei count vs DMSO), 5 days (fraction); higher = more cells survive
FG-4592 + Phenformin = compound: Cc1nc(C(=O)NCC(=O)O)c(O)c2ccc(Oc3ccccc3)cc12 [FG-4592] + N=C(N)NC(=N)NCCc1ccccc1 [Phenformin] (partner 250 µM)
Procedure, shortened: (§1)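 Lung cancer cell lines were seeded in 1536-well plates and dosed by pin tool the next day, with either a single drug or a fixed anchor-drug dose combined with five library-drug doses (not always all listed) spaced in √10 steps. Five days later, one step fixed the cells and stained their nuclei (final 0.05% Triton X-100, 1% formaldehyde, 1 ug/ml Hoechst), and nuclei were counted on 4× images. Relative viability is the nuclei count in treated wells divided by the count in vehicle wells, and each value is the median of duplicate plates.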

FG-4592 + Tozasertib = compound: Cc1nc(C(=O)NCC(=O)O)c(O)c2ccc(Oc3ccccc3)cc12 [FG-4592] + Cc1cc(Nc2cc(N3CCN(C)CC3)nc(Sc3ccc(NC(=O)C4CC4)cc3)n2)n[nH]1 [Tozasertib] (partner 0.1 µM)
Procedure, shortened: as §1

FG-4592 + Alpelisib = compound: Cc1nc(C(=O)NCC(=O)O)c(O)c2ccc(Oc3ccccc3)cc12 [FG-4592] + Cc1nc(NC(=O)N2CCC[C@H]2C(N)=O)sc1-c1ccnc(C(C)(C)C(F)(F)F)c1 [Alpelisib] (partner 2 µM)
Procedure, shortened: as §1

FG-4592 + Palbociclib = compound: Cc1nc(C(=O)NCC(=O)O)c(O)c2ccc(Oc3ccccc3)cc12 [FG-4592] + CC(=O)c1c(C)c2cnc(Nc3ccc(N4CCNCC4)cn3)nc2n(C2CCCC2)c1=O [Palbociclib] (partner 0.5 µM)
Procedure, shortened: as §1

Cell Line | relative viability (FG-4592 + Phenformin; first compound 0.08 µM) | relative viability (FG-4592 + Phenformin; first compound 0.253 µM) | relative viability (FG-4592 + Phenformin; first compound 0.8 µM) | relative viability (FG-4592 + Phenformin; first compound 2.53 µM) | relative viability (FG-4592 + Phenformin; first compound 8 µM) | relative viability (FG-4592 + Tozasertib; first compound 0.08 µM) | relative viability (FG-4592 + Tozasertib; first compound 0.253 µM) | relative viability (FG-4592 + Tozasertib; first compound 0.8 µM) | relative viability (FG-4592 + Tozasertib; first compound 2.53 µM) | relative viability (FG-4592 + Tozasertib; first compound 8 µM) | relative viability (FG-4592 + Alpelisib; first compound 0.08 µM) | relative viability (FG-4592 + Alpelisib; first compound 0.253 µM) | relative viability (FG-4592 + Alpelisib; first compound 0.8 µM) | relative viability (FG-4592 + Alpelisib; first compound 2.53 µM) | relative viability (FG-4592 + Alpelisib; first compound 8 µM) | relative viability (FG-4592 + Palbociclib; first compound 0.08 µM) | relative viability (FG-4592 + Palbociclib; first compound 0.253 µM) | relative viability (FG-4592 + Palbociclib; first compound 0.8 µM) | relative viability (FG-4592 + Palbociclib; first compound 2.53 µM) | relative viability (FG-4592 + Palbociclib; first compound 8 µM)
NCI-H1666 | 0.611 | 0.518 | 0.613 | 0.377 | 0.562 | 0.651 | 0.592 | 0.594 | 0.657 | 0.56 | 0.866 | 0.862 | 0.953 | 0.886 | 0.644 | 0.698 | 0.554 | 0.658 | 0.673 | 0.689
NCI-H1734 | 0.398 | 0.387 | 0.343 | 0.377 | 0.354 | 0.284 | 0.267 | 0.256 | 0.252 | 0.217 | 0.645 | 0.685 | 0.681 | 0.686 | 0.731 | 0.348 | 0.362 | 0.35 | 0.345 | 0.286
NCI-H1755 | 0.588 | 0.566 | 0.556 | 0.581 | 0.627 | 0.56 | 0.51 | 0.568 | 0.678 | 0.655 | 0.906 | 0.888 | 0.906 | 0.945 | 0.878 | 0.476 | 0.446 | 0.409 | 0.471 | 0.463
NCI-H1793 | 0.357 | 0.273 | – | 0.307 | 0.36 | 0.435 | 0.388 | – | 0.362 | 0.317 | 0.772 | 0.678 | – | 0.719 | 0.557 | – | 0.256 | – | 0.39 | 0.293
NCI-H1915 | 0.327 | 0.362 | 0.387 | 0.354 | 0.398 | 0.405 | 0.439 | 0.497 | 0.444 | 0.369 | 1.04 | 1.02 | 1.05 | 1.01 | 1.05 | 0.475 | 0.513 | 0.496 | 0.504 | 0.513
NCI-H1944 | 0.194 | 0.187 | 0.185 | 0.18 | 0.2 | 0.254 | 0.252 | 0.224 | 0.242 | 0.254 | 0.794 | 0.801 | 0.692 | 0.853 | 0.836 | 0.329 | 0.329 | 0.282 | 0.363 | 0.29
NCI-H1975 | 0.384 | 0.399 | 0.369 | 0.384 | 0.396 | 0.772 | 0.78 | 0.868 | 0.783 | 0.683 | 0.679 | 0.555 | 0.672 | 0.655 | 0.56 | 0.511 | 0.534 | 0.53 | 0.437 | 0.379
NCI-H1993 | 0.513 | 0.427 | 0.5 | 0.421 | 0.507 | 0.613 | 0.584 | 0.604 | 0.441 | 0.548 | 0.689 | 0.614 | 0.622 | 0.647 | 0.669 | 0.689 | 0.515 | – | 0.691 | 0.563
NCI-H2009 | 0.502 | 0.402 | 0.53 | 0.454 | 0.549 | 0.715 | 0.58 | 0.758 | 0.713 | 0.655 | 1.18 | 1.06 | 1.19 | 1.15 | 1.22 | 0.196 | 0.201 | 0.228 | 0.24 | 0.0739
NCI-H2023 | 0.427 | 0.38 | 0.437 | 0.442 | 0.379 | 0.354 | 0.357 | 0.374 | 0.348 | 0.258 | 0.683 | 0.569 | 0.722 | 0.631 | 0.534 | 0.334 | 0.323 | 0.315 | 0.397 | 0.286
NCI-H2085 | 0.646 | 0.618 | 0.536 | 0.592 | 0.647 | 0.79 | 0.774 | 0.758 | 0.792 | 0.933 | 0.911 | 0.889 | 0.967 | 1.04 | 0.935 | 0.507 | 0.432 | 0.5 | 0.46 | 0.469
NCI-H2087 | 0.519 | 0.416 | 0.454 | 0.493 | 0.529 | 0.234 | 0.205 | 0.279 | 0.175 | 0.269 | 1.11 | 0.956 | 1.11 | 1.05 | 1.03 | 0.284 | 0.203 | 0.198 | – | 0.187
NCI-H2126 | 0.554 | 0.5 | 0.51 | 0.492 | 0.461 | 0.842 | 0.775 | 0.782 | 0.721 | 0.575 | 0.744 | 0.787 | 0.661 | 0.769 | 0.69 | 0.335 | 0.358 | 0.324 | 0.372 | 0.334
NCI-H2170 | 0.381 | 0.359 | 0.494 | 0.43 | 0.503 | 0.704 | 0.622 | 0.726 | 0.777 | 0.704 | 0.823 | 0.801 | 0.794 | 0.826 | 0.581 | 0.423 | 0.351 | 0.345 | 0.381 | 0.282
NCI-H2228 | 0.358 | 0.221 | 0.225 | 0.348 | 0.24 | 0.276 | 0.262 | 0.226 | 0.288 | 0.225 | 0.536 | 0.545 | 0.759 | 0.766 | 0.637 | 0.678 | 0.762 | 0.603 | 0.89 | 0.421
NCI-H2347 | 0.284 | – | 0.376 | 0.5 | 0.441 | 0.415 | – | 0.621 | 0.315 | 0.52 | 0.988 | – | 0.85 | 1.16 | 1.11 | 0.421 | 0.433 | 0.41 | 0.454 | 0.407
NCI-H2405 | 0.282 | – | 0.382 | 0.342 | 0.42 | 0.631 | – | 0.763 | 0.735 | 0.757 | – | 0.399 | 0.655 | 0.638 | 0.715 | 0.454 | 0.449 | 0.48 | 0.46 | 0.442
NCI-H3122 | 0.42 | 0.349 | 0.398 | 0.334 | 0.385 | 0.38 | 0.361 | 0.348 | 0.418 | 0.35 | 0.861 | 0.764 | 0.665 | 0.781 | 0.733 | 0.194 | 0.203 | 0.168 | 0.216 | 0.197
PC-3 [JPC-3] | 0.489 | 0.457 | 0.531 | 0.462 | 0.486 | 0.872 | 0.854 | 0.935 | 0.901 | 0.854 | 0.966 | 0.972 | 1.1 | 1 | 1.03 | 0.55 | 0.542 | – | 0.557 | 0.567
PC-14 | 0.628 | 0.505 | 0.411 | 0.667 | 0.558 | 0.674 | 0.55 | 0.651 | 0.596 | 0.682 | 0.979 | 1 | 0.988 | 0.855 | 0.956 | 0.545 | 0.415 | 0.571 | 0.486 | 0.488
RERF-LC-KJ | 0.378 | 0.324 | 0.418 | 0.538 | 0.481 | 0.485 | 0.448 | 0.578 | 0.543 | 0.463 | 0.804 | 0.749 | 0.723 | 0.651 | 0.774 | 1.02 | 0.89 | 0.937 | 1.05 | 1.04
SK-LU-1 | 0.445 | 0.387 | 0.456 | 0.49 | 0.5 | 0.317 | 0.331 | 0.295 | 0.31 | 0.273 | 1.02 | 0.925 | 1.07 | – | 0.917 | 0.308 | 0.325 | 0.345 | 0.378 | 0.372
SK-MES-1 | 0.626 | 0.66 | 0.669 | 0.596 | 0.674 | 0.862 | 0.872 | 0.961 | 0.862 | 0.832 | 0.953 | 0.892 | 0.85 | 0.853 | 0.773 | 0.331 | 0.287 | 0.284 | 0.32 | 0.327
SW 1573 | 0.388 | 0.346 | 0.435 | 0.372 | 0.35 | 0.205 | 0.173 | 0.207 | 0.171 | 0.198 | 0.781 | 0.733 | 0.852 | 0.857 | 0.616 | 0.342 | 0.368 | 0.382 | 0.31 | 0.238
UMC-11 | 0.323 | 0.291 | 0.322 | 0.314 | 0.395 | 0.217 | 0.184 | 0.199 | 0.203 | 0.198 | 1.03 | 0.944 | 1 | 1.18 | 0.998 | 0.306 | 0.309 | 0.32 | 0.331 | 0.285
